“Also recorded” adds a separate entry of the source.
How the values were obtained:
human GSS promoter = assay: Human GSS promoter activity in HT-29 cells; type: cell-based; settings: SAMe or MTA treatment as for MAT2A promoter
Text: The human MAT2A promoter construct[…] and GSS promoter construct −1686/−46-LUC were previously described (33, 34, 50), and subcloned in the sense orientation upstream of the luciferase coding sequence of the pGL-3 enhancer vector (Promega). Both promoter constructs contain maximal promoter activity. Specificity of SAMe and MTA on promoter activity was examined by transfecting HT-29 cells with the GSS promoter construct and treating cells with SAMe or MTA as above.

HT-29 cells [1] = assay: Cell growth by MTT assay in HT-29 cells; type: cell-based, human
Experimental: Cell growth was measured by the cell growth determination kit MTT from Sigma (St. Louis, Mo.). The MTT assay measures the cell proliferation rate and reduction in cell viability. HT-29 or RKO cells (1×10^4/well) were plated in 96-well plates and treated with growth factors (all 100 ng/ml), SAMe (0.5 to 5 mM), MTA (0.5 to 1 mM), alone or in combination for 16 hrs in serum-free medium. To determine the effect of MAT2A RNAi on mitogen-induced changes in MTT, cells were first treated with RNAi for 48 hrs followed by mitogen treatment for another 24 hrs.

HT-29 cells [2] = assay: Cellular SAMe and MTA levels in HT-29 cells; type: cell-based, human
Experimental: HT-29 and RKO cells were obtained from the Cell Culture Core of the USC Liver Disease Research Center and grown according to instructions provided by the American Type Culture Collection (ATCC, Rockville, Md.). Prior to treatment with growth factors, SAMe or MTA, medium was changed to 0.1% FBS overnight.
(§1) Cellular SAMe and MTA levels were measured (51) and polyamine levels were determined (52).

[3] = test system: spermine synthase (SPM syn); assay: SPM syn expression by real-time PCR in HT-29 cells; type: cell-based, human; settings: 6 hrs
Bcl-xL = Bcl-xL mRNA level in HT-29 cells; type: cell-based, human; settings: SAMe 2 mM, 6 hrs
Experimental: SAMe and MTA induce apoptosis in liver cancer cells by the mitochondrial pathway (14). […] In liver cancer cells, SAMe and MTA induced selectively expression of Bcl-xs, a pro-apoptotic protein (67). We examined whether the same occurs in HT-29 cells. After 6 hrs of MTA (1 mM) treatment, Bcl-xL mRNA level fell by 53% (47±4% of control, results are mean±SE from 4 experiments, p<0.0005). […] This makes these agents particularly attractive in targeting colon cancer cells.

[4] = Intestinal SAMe levels in mice given SAMe or MTA in drinking water; settings: mouse, in vivo
Experimental: Three-month old male C57/B6 mice were fed ad libitum a standard diet (Harland Tekiad irradiated mouse diet 7912, Madison, Wis.), caged individually and had free access to water supplemented with SAMe ([…]), MTA (75 mg/kg/d), phosphate buffered saline (vehicle for SAMe) or DMSO (0.2%, vehicle for MTA) for 6 days. SAMe and MTA were made fresh daily. The amount of water intake, body weight, and animal behavior were closely monitored. After 6 days, animals were sacrificed, intestine was cut open along the longitudinal axis, and mucosa was stripped from the intestine (46). Mucosa was weighed and a portion processed for SAMe measurement as described below, the rest snap frozen for subsequent RNA extraction.
as §1

MAT2β = assay: Colonic MAT2β mRNA in mice fed SAMe or MTA; type: in vivo; settings: 150 mg/kg/d SAMe, 6 days
Experimental: FIG. 30. Effects of oral SAMe and MTA on colonic mRNA levels of MAT2A, MAT2 β, and […]. Mice were fed SAMe (150 to 450 mg/kg/d) or MTA (75 or 150 mg/kg/d) in drinking water for 6 days. Colonic mucosa was scrapped off and gene expression measured by real-time PCR.

[5] = Tolerability of oral SAMe and MTA in mice; type: in vivo; settings: oral in drinking water, 6 days; weight gain and water consumption similar to controls
Text: SAMe and MTA were made fresh daily. The amount of water intake, body weight, and animal behavior were closely monitored. After 6 days, animals were sacrificed, intestine was cut open along the longitudinal axis, and mucosa was stripped from the intestine (46). Mucosa was weighed and a portion processed for SAMe measurement as described below, the rest snap frozen for subsequent RNA extraction.

MAT II = MAT II (Rattus norvegicus, UniProt P18298); settings: cited from earlier work
Sequence of MAT II (P18298 whole entry): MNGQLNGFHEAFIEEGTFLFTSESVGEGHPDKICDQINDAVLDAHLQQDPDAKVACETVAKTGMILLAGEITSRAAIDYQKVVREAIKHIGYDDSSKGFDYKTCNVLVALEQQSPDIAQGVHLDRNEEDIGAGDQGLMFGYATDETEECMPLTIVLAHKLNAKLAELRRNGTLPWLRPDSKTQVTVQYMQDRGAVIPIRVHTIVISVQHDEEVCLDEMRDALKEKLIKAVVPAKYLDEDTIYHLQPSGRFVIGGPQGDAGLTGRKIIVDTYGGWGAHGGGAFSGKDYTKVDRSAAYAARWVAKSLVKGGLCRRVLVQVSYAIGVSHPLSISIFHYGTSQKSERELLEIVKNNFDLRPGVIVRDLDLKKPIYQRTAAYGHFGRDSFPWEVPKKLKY
Sequence of MAT II (Q5U2R0 whole entry partner): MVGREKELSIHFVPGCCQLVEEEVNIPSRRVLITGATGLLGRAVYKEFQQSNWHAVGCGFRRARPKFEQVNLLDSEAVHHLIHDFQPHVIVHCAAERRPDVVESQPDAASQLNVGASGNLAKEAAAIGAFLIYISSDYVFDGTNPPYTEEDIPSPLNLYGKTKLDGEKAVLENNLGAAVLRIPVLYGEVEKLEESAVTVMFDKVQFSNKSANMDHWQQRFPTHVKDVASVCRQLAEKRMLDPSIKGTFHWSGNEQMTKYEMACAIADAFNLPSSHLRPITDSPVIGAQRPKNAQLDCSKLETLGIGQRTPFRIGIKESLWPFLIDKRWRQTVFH

MAT I = MAT I (Rattus norvegicus, UniProt P13444); settings: cited from earlier work
Sequence of MAT I (P13444 whole entry): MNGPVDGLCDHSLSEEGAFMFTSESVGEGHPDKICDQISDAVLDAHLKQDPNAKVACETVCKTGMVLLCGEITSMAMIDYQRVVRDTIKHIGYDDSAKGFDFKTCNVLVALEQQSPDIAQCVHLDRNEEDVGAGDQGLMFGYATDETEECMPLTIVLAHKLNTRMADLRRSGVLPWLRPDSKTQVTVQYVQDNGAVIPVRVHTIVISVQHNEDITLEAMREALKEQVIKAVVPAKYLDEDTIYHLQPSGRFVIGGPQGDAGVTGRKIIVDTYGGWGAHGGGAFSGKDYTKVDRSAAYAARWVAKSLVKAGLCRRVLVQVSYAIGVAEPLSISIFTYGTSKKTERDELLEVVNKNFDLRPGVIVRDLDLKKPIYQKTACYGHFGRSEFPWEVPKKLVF

MAT III = MAT III (Rattus norvegicus, UniProt P13444); settings: cited from earlier work
Sequence of MAT III (P13444 whole entry): as above

C[S+](CC[C@H](N)C(=O)O)C[C@H]1O[C@@H](n2cnc3c(N)ncnc32)[C@H](O)[C@@H]1O (stereo partly drawn) [SAMe, S-adenosylmethionine]
human GSS promoter activity (human GSS promoter): no influence on the human GSS promoter activity
growth (HT-29 cells [1]; SAMe 5 mM, 24 hr): 71 % of control
growth, agent alone (HT-29 cells [1]; SAMe 0.5 to 5 mM, MTA 0.5 to 1 mM, 16 hrs): no effect on growth
mitogenic action of leptin, EGF and IGF-1 (HT-29 cells [1]; SAMe 0.5 to 5 mM, MTA 0.5 to 1 mM, 16 hrs, with growth factors): blocked the mitogenic action
increase of intracellular MTA levels after SAMe treatment (HT-29 cells [2]; 5 mM SAMe for 16 hrs): 19 fold
intracellular MTA levels after SAMe treatment (HT-29 cells [2]; 5 mM SAMe for 16 hrs): 1,906%
MTA level (HT-29 cells [2]; 6 hrs, SAMe 2 mM): 0.192 ± 0.036 nmol/mg protein
SAMe level (HT-29 cells [2]; 6 hrs, SAMe 2 mM): 1.44 ± 0.13 nmol/mg protein
MTA level (HT-29 cells [2]; 6 hrs, SAMe 5 mM): 0.354 ± 0.096 nmol/mg protein
SAMe level (HT-29 cells [2]; 6 hrs, SAMe 5 mM): 2.19 ± 0.21 nmol/mg protein
MTA level (HT-29 cells [2]; 16 hrs, SAMe 2 mM): 0.261 ± 0.035 nmol/mg protein
SAMe level (HT-29 cells [2]; 16 hrs, SAMe 2 mM): 1.28 ± 0.01 nmol/mg protein
MTA level (HT-29 cells [2]; 16 hrs, SAMe 5 mM): 0.934 ± 0.105 nmol/mg protein
SAMe level (HT-29 cells [2]; 16 hrs, SAMe 5 mM): 1.83 ± 0.01 nmol/mg protein
SPM syn expression ([3]; SAMe 2 mM): 1.1 ± 0.02 fold of control
SPM syn expression ([3]; SAMe 5 mM): 1.0 ± 0.01 fold of control
Bcl-xL mRNA level (Bcl-xL): did not have an effect
SAMe level in proximal small intestine [4]: 800 % of control
increase in SAMe level in colonic mucosa [4]: ~200%
inhibition of MAT2β expression (MAT2β): 50%
tolerability / toxicity [5]: well tolerated; also recorded: no apparent toxicity
Inhibition by SAMe (MAT II; MAT II): Yes
IC50 (MAT II; read-out: IC50, inhibition of MAT II): 60 µM
Inhibition by SAMe (MAT I; MAT I): No
IC50 (MAT I; read-out: IC50, inhibition of MAT I): 400 µM
Inhibition by SAMe (MAT III; MAT III): No
stimulation of MAT III (MAT III; at 500 μM SAMe): up to 8 fold

Reference: patent US20100166727A1, “S-Adenosylmethionine And Methylthioadensosine In Chemoprevention And Treatment Of Colon Polyps And Cancer” (UNIVERSITY OF SOUTHERN CALIFORNIA, priority 2007, published 2010)
